Assays:
[1] = test system: NO production in LPS-activated RAW 264.7 macrophages; assay: NO production in LPS-activated RAW 264.7 macrophages (DAF-FM); type: cell-based; conditions: Mus musculus, RAW264.7; LPS 1 µg/mL activated RAW 264.7
Procedure: HCA7 colorectal cancer cell line was obtained from Sigma. […] Louis, MO) containing 10% heat-inactivated foetal bovine serum (HI-FBS) (Gibco, USA), 100 μg/mL streptomycin (Invitrogen, USA), and […] penicillin (Invitrogen, USA)[40]. HCA7 and RAW 264.7 cells were cultured in Dulbecco's minimal essential media (DMEM, Invitrogen) containing 10% HI-FBS, sodium pyruvate (1 mM), penicillin ([…]), and streptomycin (100 mg/m)[41]^,[42]. […] Molecular Probes, USA). Briefly, RAW 264.7 cells were cultured in black 96-well plates (200,000 cells/mL, 100 µl/well) for 24 h. […] The fluorescence intensity, which is directly proportional to NO levels, was quantified, as detailed in our previous study. IC50 values were calculated from the dose–response curves.

HCA7 cells = assay: MTS cell viability assay HCA7; type: cell-based; conditions: Homo sapiens, HCA-7, 48 h, cell line highly expressing COX-2
Procedure: (§1) Human colorectal cancer cell lines, HCT116 and HT29, and RAW 264.7 macrophages were obtained from ATCC (Manassas, VA). HCA7 colorectal cancer cell line was obtained from Sigma. HT29 and HCT116 cells were cultured in McCoy's 5 A medium (Sigma Aldrich, St. Louis, MO) containing 10% heat-inactivated foetal bovine serum (HI-FBS) (Gibco, USA), 100 μg/mL streptomycin (Invitrogen, USA), and […] penicillin (Invitrogen, USA)[40]. HCA7 and RAW 264.7 cells were cultured in Dulbecco's minimal essential media (DMEM, Invitrogen) containing 10% HI-FBS, sodium pyruvate (1 mM), penicillin ([…]), and streptomycin (100 mg/m)[41]^,[42].
(§2) Cells were cultured in 96‐well plates for 48 h and then treated with serum-free media containing different concentrations of the tested compounds (12.5, 25, 50, 100 and 150 µM). After 48 h., MTS reagent (Promega) was added as directed by the manufacturer, and then, the absorbance was measured at 495 nm. The absorbance is proportional to the number of viable cells. IC50 was calculated from the dose-response curves as described previously[45] using GraphPad Prism 8 software (GraphPad Software, San Diego, CA).

[2] = test system: acetic acid-induced writhing in mice; assay: Acetic acid induced writhing test; type: in vivo; conditions: 50 mg/kg p.o.; for Number of writhes: 1 h prior acetic acid i.p., within 30 min
Procedure: The number of writhes, manifested as extension of hind legs, constriction of abdomen, or turning of trunk was recorded within 30 min.

ovine COX-1 = molecular target: T1, ovine COX-1 (Ovis aries, UniProt P05979); assay: In vitro COX-1 inhibitory assay (colorimetric Cayman kit)
T1 sequence (P05979 25-600): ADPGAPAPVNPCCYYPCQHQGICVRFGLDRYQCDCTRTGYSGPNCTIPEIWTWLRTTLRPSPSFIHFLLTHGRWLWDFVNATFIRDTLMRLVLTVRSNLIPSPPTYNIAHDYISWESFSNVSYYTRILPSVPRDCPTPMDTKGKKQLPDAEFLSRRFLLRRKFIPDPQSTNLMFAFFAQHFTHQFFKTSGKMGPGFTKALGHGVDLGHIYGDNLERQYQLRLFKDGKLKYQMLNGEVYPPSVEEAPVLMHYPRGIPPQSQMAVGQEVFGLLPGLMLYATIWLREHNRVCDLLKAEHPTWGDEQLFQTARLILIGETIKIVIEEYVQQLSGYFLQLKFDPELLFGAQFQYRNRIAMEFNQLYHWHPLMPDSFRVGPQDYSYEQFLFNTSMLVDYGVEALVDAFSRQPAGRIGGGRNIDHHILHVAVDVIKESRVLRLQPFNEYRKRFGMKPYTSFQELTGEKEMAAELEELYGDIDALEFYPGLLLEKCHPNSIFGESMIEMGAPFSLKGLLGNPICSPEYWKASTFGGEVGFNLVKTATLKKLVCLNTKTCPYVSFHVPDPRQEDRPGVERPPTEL
Procedure: All the newly synthesised compounds were tested for their ability to inhibit COX-1 and COX-2 enzymes using a screening assay method.

[3] = test system: stomach ulceration in rats; assay: Gastric acute ulcerogenic activity; conditions: rat, n = 5; for Ulcer Index (UI): UI = UN + US + UP×10^−1
Procedure: The rats from the previous experiment were fasted for 12 h., followed by the administration of additional doses of the selected compounds or the two references for two consecutive days. Six hrs after the last treatment, the animals were sacrificed, and their stomachs were removed, washed with saline solution (0.9%) and examined for ulceration using a magnifying lens. The ulcer scores were estimated according to the method prescribed by Kulkarni and as detailed in our previous studies[36–38]. The following scores were individually assigned to each lesion: normal coloured stomach, 0; red colouration, 0.5; spot ulcers, 1; haemorrhagic streaks, 1.5; ulcer >3 but <5 mm, 2; and ulcers >5 mm, 3.

HT29 cells = assay: MTS cell viability assay HT29; type: cell-based; conditions: Homo sapiens, HT-29, 48 h, cell line moderately expressing COX-2
Procedure: as §1, §2

[4] = test system: ROS production in LPS-activated RAW 264.7 macrophages; assay: ROS production in LPS-activated RAW 264.7 macrophages (DCFH-DA); type: cell-based; conditions: LPS 1 µg/mL activated RAW 264.7
Procedure: HCA7 colorectal cancer cell line was obtained from Sigma. […] Louis, MO) containing 10% heat-inactivated foetal bovine serum (HI-FBS) (Gibco, USA), 100 μg/mL streptomycin (Invitrogen, USA), and […] penicillin (Invitrogen, USA)[40]. HCA7 and RAW 264.7 cells were cultured in Dulbecco's minimal essential media (DMEM, Invitrogen) containing 10% HI-FBS, sodium pyruvate (1 mM), penicillin ([…]), and streptomycin (100 mg/m)[41]^,[42]. […] The cells were cultured, incubated with the different test compounds, and activated with LPS (1 µg/mL) as detailed above. […] IC50 values were calculated from the dose–response curves.

[5] = test system: carrageenan-induced rat paw oedema; assay: Carrageenan-induced rat paw oedema test; type: in vivo; conditions: compounds and celecoxib 50 mg/kg, ibuprofen and indomethacin 20 mg/kg; for Mean oedema thickness 1h: 1 h after carrageenan; for Mean oedema thickness 1h / Mean oedema thickness 2h / Mean oedema thickness 3h / Mean oedema thickness 4h / Mean oedema thickness 5h / Mean oedema thickness 24h / Mean oedema thickness 0h: mean ± SEM, n = 5; for Mean oedema thickness 2h: 2 h after carrageenan; for Mean oedema thickness 3h: 3 h after carrageenan; for Mean oedema thickness 4h: 4 h after carrageenan; for Mean oedema thickness 5h: 5 h after carrageenan; for Mean oedema thickness 24h: 24 h after carrageenan; for Mean oedema thickness 0h: before carrageenan (0 h); for Average oedema inhibition%: from area under the curve of all time points
Procedure: The rats were divided into nine groups (n = 5/group). All tested compounds were suspended in 1% Tween-80. Group 1, controls, were given the vehicle (1% Tween80, 10 ml/kg). […] The rats were given the drugs 1 h before the injection of carrageenan solution (1% in 0.9% NaCl, 0.1 ml) (Sigma Aldrich, USA) in the sub-planter tissue of the right hind paw. The paw thickness (mm) was measured using a calliper before (0 h) and after carrageenan injection at 1, 2, 3, 4, 5 and 24 h. The inhibition of oedema thickness was calculated using the following formula (control– drug/control) × 100.

| Compound | IC50 [1] [µM] | IC50 (HCA7 cells) [µM] | Number of writhes [2] | IC50 (ovine COX-1) [µM] | Average Ulcer number [3] | Lesion Incidence (%) [3] [%] | Number of rats with ulcer [3] | Ulcer Index (UI) [3] | IC50 (HT29 cells) [µM] | IC50 ([4]; Mus musculus, RAW264.7) [µM] | Mean oedema thickness 1h [5] [mm] | Mean oedema thickness 2h [5] [mm] | Mean oedema thickness 3h [5] [mm] | Mean oedema thickness 4h [5] [mm] | Mean oedema thickness 5h [5] [mm] | Mean oedema thickness 24h [5] [mm] | Mean oedema thickness 0h [5] [mm] | Average oedema inhibition% [5] [%] | melting point [°C] | other results |
| --- | --- | --- | --- | --- | --- | --- | --- | --- | --- | --- | --- | --- | --- | --- | --- | --- | --- | --- | --- | --- |
| CC(C)Cc1ccc(C(C)C(=O)NN2C(=O)c3ccccc3N(C)C2c2ccc([N+](=O)[O-])cc2)cc1 (stereo not shown) [7c, 2-(4-Isobutylphenyl)-N-(1-methyl-2-(4-nitrophenyl)-4-oxo-1,4-dihydroquinazolin-3(2H)-yl) propenamide] | 23.4 ± 1.29 | > 150 | 11.33 writhes | 14.73 ± 0.13 | 1 | 60 | 3 | 8 | 13.4 ± 0.17 | 9.22 | 1.79 ± 0.04 | 2.21 ± 0.35 | 1.90 ± 0.44 | 1.62 ± 0.26 | 1.55 ± 0.29 | 0.06 ± 0.04 | 0.00 ± 0.00 | 45.37 | 111 to 116 | Reduction in the pain response (writhes number) [2]: 78%; IC50 [4]: 9.23 ± 1.76 µM |
| NNC(=O)CSc1nc2ccccc2c(=O)n1NC(=O)Cc1ccccc1 [13b, N-(2-((2-hydrazinyl-2-oxoethyl)thio)-4-oxoquinazolin-3(4H)-yl)-2-phenylacetamide] | 9.76 ± 2.14 | > 150 | no writhes | 16.92 ± 0.16 | 0.4 | 40 | 2 | 4.8 | > 150 | 24.4 ± 1.43 | 2.26 ± 0.30 | 2.58 ± 0.41 | 2.67 ± 0.15 | 1.97 ± 0.29 | 1.61 ± 0.23 | 0.45 ± 0.14 | 0.00 ± 0.00 | 45.49 | 210 to 215 |  |
